In publication PMC10380083, “Synthesis of Prostate-Specific Membrane Antigen-Targeted Bimodal Conjugates of Cytotoxic Agents and Antiandrogens and Their Comparative Assessment with Monoconjugates” (International Journal of Molecular Sciences, 2023):
*1 amine or outer side, *2 acyl side, *3 side chain or, on linkers, in order; H or OH if unused. Where a SMILES comes first, the peptide text is derived from it. [ ]: non-standard residue; d: D form. The star is where a group is joined. GluureaLys(ε-3-ClBenzyl) = O=C(O)CC[C@H](NC(=O)N[C@@H](CCCCN(Cc1cccc(Cl)c1)*)C(=O)O)C(=O)O; Dolaproine = CO[C@@H]([C@@H]1CCCN1)[C@@H](C)C(=O)O; Dil = CC[C@H](C)[C@H](NC)[C@@H](CC(=O)O)OC; X2 = O=C(CCCc1cn(CCCN[*:1])nn1)[*:2]; PABC = O=C(OCc1ccc(N[*:1])cc1)[*:2]; X1 = C[C@@H](N*)[C@@H](O)c1ccccc1; Cit = NC(=O)NCCC[C@H](N)C(=O)O; Suc = O=C(CCC(=O)[*:2])[*:1]; NMeV = CN[C@H](C(=O)O)C(C)C; Ahx = NCCCCCC(=O)O

Tests used:
LNCaP cells = experiment: In vitro cytotoxicity, MTS assay, LNCaP; type: cell-based; details: 72 h, high PSMA expression, range 0.5 to 800 nM, triplicates
Method: (§1) The resulting bimodal conjugates were tested in vitro on three different PCa cell lines. We used LNCaP cells with high PSMA expression, 22Rv1 cells with moderate PSMA expression and PC-3 cells with extremely low PSMA expression. Different levels of PSMA expression in 22Rv1 and LNCaP cell lines allows evaluation of the effect of the level of expression on the toxicity of the target drugs. PSMA-negative cell line PC-3 allows a qualitative assessment of non-specific toxicity of the obtained compounds.
(§2) The cytotoxicity of the investigated substances was tested using the MTS assay with some modifications. Cells were seeded in the 96-well plates (Corning, New York, NY, USA) at concentration of 7000 cells per well for PC-3 culture, 12,000 cells per well for LNCaP cells and 20,000 cells per well for 22Rv1 line. The cells were counted using the automatic cell counter EVE. All cell lines were purchased from the American Type Culture Collection (ATCC, Manassas, VA, USA). After 1 day, serial dilutions of tested substances were added to the cells. Cell culture medium with addition of DMSO in appropriate concentrations was used as a negative control. DMSO (30%) was added in culture medium as a positive control. Cells were then incubated during 72 h at 37 °C and 5% CO2. Later, the culture medium from each well was removed and 20 μL of MTS reagent (CellTiter 96 AQueous Non-Radioactive Cell Proliferation Assay, Promega) were added to each well with 100 μL of new culture medium. After 4 h incubation at 37 °C in darkness, the absorbance of the solution was measured at 490 nm wavelength using Thermo Scientific Multiskan GO spectrometer. Cell viability was calculated as a percentage compared to control cells. The absorbance of MTS reagent in culture medium without cells was taken as zero. […] Experiments were performed in triplicates. Data were analyzed using Prism 9—GraphPad version 9.2.0 software. p values < 0.05 were considered significant.

22Rv1 cells = experiment: In vitro cytotoxicity, MTS assay, 22Rv1; type: cell-based, human; details: 72 h, moderate PSMA expression, range 0.5 to 800 nM, triplicates
Method: as §1, §2

PC-3 cells = experiment: In vitro cytotoxicity, MTS assay, PC-3; type: cell-based, human; details: 72 h, extremely low PSMA expression, range 0.5 to 800 nM, triplicates
Method: as §1, §2

SMILES | CC50, LNCaP (LNCaP cells) | CC50, 22Rv1 (22Rv1 cells) | CC50, PC-3 (PC-3 cells)
CC[C@H](C)[C@@H]([C@@H](CC(=O)N1CCC[C@H]1[C@H](OC)[C@@H](C)C(=O)N[C@H](C)[C@@H](O)c1ccccc1)OC)N(C)C(=O)[C@@H](NC(=O)[C@H](C(C)C)N(C)C(=O)OCc1ccc(NC(=O)[C@H](CCCNC(N)=O)NC(=O)[C@@H](NC(=O)CCCc2cn(CCCNC(=O)[C@H](Cc3ccc(O)cc3)NC(=O)[C@H](Cc3ccccc3)NC(=O)CCC(=O)NCCCCCC(=O)N(CCCC[C@H](NC(=O)N[C@@H](CCC(=O)O)C(=O)O)C(=O)O)Cc3cccc(Cl)c3)nn2)C(C)C)cc1)C(C)C [I, reference compound] ({GluureaLys(ε-3-ClBenzyl)-Ahx-Suc}-FY[X2]V[Cit][PABC][NMeV]V[Dil][Dolaproine]-X1) | 77.7 ± 1.3 nM | 78.5 ± 0.8 nM | >800 nM
CC[C@H](C)[C@@H]([C@@H](CC(=O)N1CCC[C@H]1[C@H](OC)[C@@H](C)C(=O)N[C@H](C)[C@@H](O)c1ccccc1)OC)N(C)C(=O)[C@@H](NC(=O)[C@@H](NC)C(C)C)C(C)C [MMAE, Monomethyl Auristatin E, reference compound] (H-[NMeV]V[Dil][Dolaproine]-X1) | 0.69 ± 0.1 nM | 0.42 ± 0.2 nM | >800 nM
